These results are taken from paper PMC7587356, “High-Throughput Screening for Inhibitors of the SARS-CoV-2 Protease Using a FRET-Biosensor” (Molecules, 2020).

Where a name gives a salt, the structure may show the parent alone. Read-outs that look alike come from different tables or passages of the source.

In this experiment the target is SARS-CoV-2 3CLpro (Severe acute respiratory syndrome coronavirus 2, UniProt P0DTD1). Nature of the experiment: biochemical. The experiment is classed as biochemical. Details: Replicate_1 / Replicate_2 / mean / mean (LOPAC_screen_w_protease): unit not given here. The settings on record: for inhibition at 5 µM: 4 h.
Setting [1] is: sheet LOPAC_screen_w_protease, primary screen at 5 µM, mean of two replicates.
The mark [2] stands for this setting: sheet LOPAC_screen_w_protease, primary screen at 5 µM, replicate 1.
The mark [3] stands for this setting: sheet LOPAC_screen_w_protease, primary screen at 5 µM, replicate 2.
The mark [4] stands for this setting: sheet LOPAC_screen_w_protease, LOPAC1280 primary screen with protease, 5 µM compound, mean of the two replicates.
Where [5] appears, read: sheet LOPAC_screen_w_protease, LOPAC1280 primary screen with protease, 5 µM compound, replicate 1.
The mark [6] stands for this setting: sheet LOPAC_screen_w_protease, LOPAC1280 primary screen with protease, 5 µM compound, replicate 2.
[7] abbreviates: sheet LOPAC_screen_w_protease, primary screen of LOPAC1280 at 5 µM with protease, mean of the two replicates, read-out: mean.
Where [8] appears, read: sheet LOPAC_screen_w_protease, primary screen of LOPAC1280 at 5 µM with protease, replicate 1, read-out: Replicate_1.
[9] abbreviates: sheet LOPAC_screen_w_protease, primary screen of LOPAC1280 at 5 µM with protease, replicate 2, read-out: Replicate_2.
Setting [10] is: sheet LOPAC_screen_w_protease, LOPAC1280 primary screen with protease, 5 µM compound, mean of the two replicates, read-out: mean.
The mark [11] stands for this setting: sheet LOPAC_screen_w_protease, LOPAC1280 primary screen with protease, 5 µM compound, replicate 1, read-out: Replicate_1.
Where [12] appears, read: sheet LOPAC_screen_w_protease, LOPAC1280 primary screen with protease, 5 µM compound, replicate 2, read-out: Replicate_2.
Where [13] appears, read: sheet LOPAC_screen_w_protease, primary screen with protease, compound at 5 µM, mean of two replicates.
Where [14] appears, read: sheet LOPAC_screen_w_protease, primary screen with protease, compound at 5 µM, replicate 1.
[15] abbreviates: sheet LOPAC_screen_w_protease, primary screen with protease, compound at 5 µM, replicate 2.
Setting [16] is: LOPAC1280 primary screen with protease, 5 µM compound, mean of the two replicates.
The mark [17] stands for this setting: LOPAC1280 primary screen with protease, 5 µM compound, replicate 1.

`O=c1[nH]c2cc(C(F)(F)F)ccc2n1-c1cc(C(F)(F)F)ccc1O` [NS-1619]: the “mean (LOPAC screen with protease)” value under setting [1] worked out at 7.54. Also, the “Replicate_1 (LOPAC screen with protease)” value under setting [2] was 6.544. Besides, the “Replicate_2 (LOPAC screen with protease)” value under setting [3] was 8.536.

Regarding `CN(C)C(N)=NCCC[C@H](N)C(=O)O.Cl` [N^G,N^G-Dimethylarginine hydrochloride], the mean (sheet LOPAC_screen_w_protease, LOPAC1280 at 5 µM, mean of two replicates) is 0.9307. The Replicate_1 (sheet LOPAC_screen_w_protease, LOPAC1280 at 5 µM, replicate 1) worked out at 2.142. The Replicate_2 (sheet LOPAC_screen_w_protease, LOPAC1280 at 5 µM, replicate 2) was -0.2808.

Take `COc1ccccc1N1CCN(CC(O)COc2cccc3ccccc23)CC1.Cl.Cl` (centres unmarked) [Naftopidil dihydrochloride]: the mean under setting [4] amounted to 6.057. Moreover, under setting [5], the Replicate_1 was found to be 7.362. The same compound registered a Replicate_2 under setting [6] of 4.753.

Turning to `Oc1ccc2c3c1O[C@H]1[C@@H](O)CC[C@@]4(O)[C@@H](C2)N(CC2CCC2)CC[C@]314` [Nalbuphine hydrochloride], the inhibition at 5 µM reads like this: (read-out: Replicate_1) 4.1%; (read-out: Replicate_2) 4.27%; (read-out: mean) 4.19%.

On to `CCn1cc(C(=O)[O-])c(=O)c2ccc(C)nc21.[Na+]` [Nalidixic acid sodium], for which the mean under setting [4] stood at 4.611. For the same compound, under setting [5], the Replicate_1 is listed as 4.1091. Besides, under setting [6], the Replicate_2 is 5.113.

For `C=CCN1CC[C@]23c4c5ccc(O)c4O[C@@H]2/C(=N/N=C2\CC[C@@]4(O)C6Cc7ccc(O)c8c7[C@@]4(CCN6CC=C)[C@@H]2O8)CC[C@@]3(O)C1C5.Cl.Cl` [Naloxonazine dihydrochloride], the “mean (LOPAC screen with protease)” value under setting [1] was found to be 7.252. Also, the “Replicate_1 (LOPAC screen with protease)” value under setting [2] was 6.395. Further, the “Replicate_2 (LOPAC screen with protease)” value under setting [3] is given as 8.109.

Turning to `C=CCN1CC[C@]23c4c5ccc(O)c4O[C@H]2/C(=N/NC(=O)c2ccccc2)CC[C@@]3(O)[C@H]1C5` [Naloxone benzoylhydrazone], the inhibition at 5 µM is, setting by setting: (read-out: Replicate_1) 2.85%; (read-out: Replicate_2) 4.95%; (read-out: mean) 3.9%.

Regarding `C=CCN1CC[C@]23c4c5ccc(O)c4O[C@H]2C(=O)CC[C@@]3(O)[C@H]1C5` [Naloxone hydrochloride], the inhibition at 5 µM is, setting by setting: under setting [7], 4%; under setting [8], 3.91%; under setting [9], 4.09%.

As for `Oc1ccc2c3c1O[C@H]1c4oc5ccccc5c4C[C@@]4(O)[C@@H](C2)N(CC2CC2)CC[C@]314` [Naltriben methanesulfonate], the inhibition at 5 µM reads like this: (read-out: Replicate_1) 4.4%; (read-out: Replicate_2) 3%; (read-out: mean) 3.7%.

In the case of `Oc1ccc2c3c1O[C@H]1c4[nH]c5ccccc5c4C[C@@]4(O)[C@@H](C2)N(CC2CC2)CC[C@]314` [Naltrindole hydrochloride], the inhibition at 5 µM by setting is: (read-out: Replicate_1) 3.59%; (read-out: Replicate_2) 2.54%; (read-out: mean) 3.06%.

Regarding `c1ccc2c(CC3=NCCN3)cccc2c1` [Naphazoline hydrochloride], the inhibition at 5 µM amounted to 4.49% under setting [10], 4.4% under setting [11] and 4.59% under setting [12].

On to `CN(C)C(=O)Oc1cccc([N+](C)(C)C)c1` [Neostigmine bromide], for which the inhibition at 5 µM by setting is: under setting [10], 5.51%; under setting [11], 4.9%; under setting [12], 6.13%.

On to `O=C(CCNNC(=O)c1ccncc1)NCc1ccccc1` [Nialamide], for which the inhibition at 5 µM is, setting by setting: under setting [7], 3.19%; under setting [8], 4.27%; under setting [9], 2.12%.

Regarding `COC(=O)C1=C(C)NC(C)=C(C(=O)OCCN(C)Cc2ccccc2)C1c1cccc([N+](=O)[O-])c1` (centres unmarked) [Nicardipine hydrochloride], the inhibition at 5 µM turned out to be 2.73% (sheet LOPAC_screen_w_protease, primary screen with protease, compound at 5 µM, mean of two replicates, read-out: mean); 2.03% (sheet LOPAC_screen_w_protease, primary screen with protease, compound at 5 µM, replicate 1, read-out: Replicate_1); 3.42% (sheet LOPAC_screen_w_protease, primary screen with protease, compound at 5 µM, replicate 2, read-out: Replicate_2).

For `O=C(Nc1ccc([N+](=O)[O-])cc1Cl)c1cc(Cl)ccc1O` [Niclosamide], the inhibition at 5 µM runs as follows: (read-out: Replicate_1) 5.53%; (read-out: Replicate_2) 4%; (read-out: mean) 4.76%.

`COC(=O)C1=C(C)NC(C)=C(C(=O)OC)C1c1ccccc1[N+](=O)[O-]` [Nifedipine]: the inhibition at 5 µM reads like this: (sheet LOPAC_screen_w_protease, primary screen at 5 µM, mean of two replicates, read-out: mean (LOPAC screen with protease)) 14.6%; (sheet LOPAC_screen_w_protease, primary screen at 5 µM, replicate 1, read-out: Replicate_1 (LOPAC screen with protease)) 13.8%; (sheet LOPAC_screen_w_protease, primary screen at 5 µM, replicate 2, read-out: Replicate_2 (LOPAC screen with protease)) 15.5%.

Turning to `O=C(O)c1cccnc1Nc1cccc(C(F)(F)F)c1` [Niflumic acid], the inhibition at 5 µM under setting [10] was found to be 4.95%, the inhibition at 5 µM under setting [11] is 4.76% and the inhibition at 5 µM under setting [12] turned out to be 5.13%.

Turning to `CC1(C)NC(=O)N(c2ccc([N+](=O)[O-])c(C(F)(F)F)c2)C1=O` [Nilutamide], the inhibition at 5 µM reads like this: (sheet LOPAC_screen_w_protease, LOPAC1280 primary screen at 5 µM, with protease, mean of the two replicates, read-out: mean) 0.761%; (sheet LOPAC_screen_w_protease, LOPAC1280 primary screen at 5 µM, with protease, replicate 1, read-out: Replicate_1) 2.22%; (sheet LOPAC_screen_w_protease, LOPAC1280 primary screen at 5 µM, with protease, replicate 2, read-out: Replicate_2) -0.697%.

Regarding `CS(=O)(=O)Nc1ccc([N+](=O)[O-])cc1Oc1ccccc1` [Nimesulide], the inhibition at 5 µM runs as follows: (read-out: Replicate_1) 4.73%; (read-out: Replicate_2) 4.45%; (read-out: mean) 4.59%.

In the case of `COCCOC(=O)C1=C(C)NC(C)=C(C(=O)OC(C)C)C1c1cccc([N+](=O)[O-])c1` (centres unmarked) [Nimodipine], the inhibition at 5 µM reads like this: under setting [10], 4.81%; under setting [11], 3.58%; under setting [12], 6.04%.

Consider `Cc1ncc(CNC(=O)N(CCCl)N=O)c(N)n1` [Nimustine hydrochloride], for which the inhibition at 5 µM under setting [7] was 3.43%, the inhibition at 5 µM under setting [8] amounted to 3.89% and the inhibition at 5 µM under setting [9] turned out to be 2.97%.

Consider `CNCCC(Oc1ccccc1OC)c1ccccc1` (centres unmarked) [Nisoxetine hydrochloride], for which the inhibition at 5 µM runs as follows: under setting [10], 4.4%; under setting [11], 3.53%; under setting [12], 5.27%.

Regarding `CCOC(=O)C1=C(C)NC(C)=C(C(=O)OC)C1c1cccc([N+](=O)[O-])c1` (centres unmarked) [Nitrendipine], the inhibition at 5 µM is, setting by setting: under setting [10], 4.54%; under setting [11], 3.89%; under setting [12], 5.19%.

For the compound `COC(=O)Nc1nc2ccc(C(=O)c3cccs3)cc2[nH]1` [Nocodazole], the inhibition at 5 µM under setting [10] was determined as 4.68%, the inhibition at 5 µM under setting [11] stood at 2.87% and the inhibition at 5 µM under setting [12] came out at 6.49%.

Turning to `O=C1OC(=O)[C@H]2[C@@H]1[C@@H]1CC[C@H]2O1` [Norcantharidin], the mean under setting [13] was 2.796. The Replicate_1 under setting [14] is 1.684. For the same compound, the Replicate_2 under setting [15] was 3.909.

Take `CNCCC=C1c2ccccc2CCc2ccccc21` [Nortriptyline hydrochloride]: the inhibition at 5 µM is, setting by setting: (read-out: Replicate_1) 2.88%; (read-out: Replicate_2) 1.57%; (read-out: mean) 2.22%.

Consider `COc1ccc2c(c1OC)C(=O)O[C@@H]2[C@H]1c2c(cc3c(c2OC)OCO3)CCN1C.Cl` [Noscapine hydrchloride], for which the “mean (LOPAC_screen_w_protease)” value under setting [16] is on record as 1.752. Further, the “Replicate_1 (LOPAC_screen_w_protease)” value under setting [17] is 0.9869.

Regarding `CC(CCc1ccccc1)NC(C)C(O)c1ccc(O)cc1` (centres unmarked) [Nylidrin hydrochloride], the inhibition at 5 µM runs as follows: under setting [7], 3.76%; under setting [8], 4.88%; under setting [9], 2.65%.

As to `Nc1nc(OCc2ccccc2)c2nc[nH]c2n1` [O6-benzylguanine], the inhibition at 5 µM is, setting by setting: (LOPAC1280 primary screen with protease, 5 µM compound, replicate 1, read-out: Replicate_1 (LOPAC_screen_w_protease)) 0.721%; (LOPAC1280 primary screen with protease, 5 µM compound, replicate 2, read-out: Replicate_2 (LOPAC_screen_w_protease)) 2.08%. The “mean (LOPAC_screen_w_protease)” value (LOPAC1280 primary screen with protease, 5 µM compound, mean of two replicates) is reported as 1.401.

Turning to `COc1ccc2[nH]cc(CCN)c2c1.Cl` [O-Methylserotonin hydrochloride], the “mean (LOPAC_screen_w_protease)” value under setting [16] was found to be 2.11. In addition, the “Replicate_1 (LOPAC_screen_w_protease)” value under setting [17] is 3.3171. Where the note is “LOPAC1280 primary screen with protease, 5 µM compound, replicate 2”, the “Replicate_2 (LOPAC_screen_w_protease)” value was determined as 0.9034.

`N[C@@H](COP(=O)(O)O)C(=O)O` [O-Phospho-L-serine] registered a mean under setting [4] of 5.279. Under setting [5], this compound yielded a Replicate_1 of 3.193. The same compound showed a Replicate_2 under setting [6] of 7.365.

On to `O=c1onc2cnc3ccccc3n12` [ODQ], for which the mean under setting [13] was determined as 2.809. This compound gave a Replicate_1 under setting [14] of 2.693. This compound also registered a Replicate_2 under setting [15] of 2.926.
